Results on eight molecules are retold here after ChEMBL document CHEMBL1201862, “PubChem BioAssay data set” (2004).

As a reminder, the GI50 is the concentration that inhibits growth by half.

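Values below derive from 48-hour exposures of cells grown in 96-well plates, with endpoints linearly interpolated between the two concentrations bracketing the appropriate inhibition level. Abbreviation: GI50, concentration required for 50% inhibition of growth.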 Active and inactive are the calls of the source. Rule as the data show it: active = GI50 up to about 1.1 µM and inactive = higher.

Assay in all cases: DTP human tumour cell line panel, 48 h
For assay [1], the system named is CCRF-CEM.
The test system of assay [2] is KM12.
Assay [3] relates to SF-295.
The subject of assay [4] is MOLT-4.
In assay [5] the test system is SF-539.
For assay [6], the system named is HCC 2998.
For assay [7], the system named is UACC-62.
In assay [8] the test system is COLO 205.
Assay [9] relates to SK-OV-3.
The test system of assay [10] is SN12C.
Assay [11] relates to RPMI-8226.
Assay [12] concerns OVCAR-4.
For assay [13], the system named is HCT-15.
Assay [14] concerns SNB-78.
Assay [15] deals with Malme-3M.
In assay [16] the test system is HT-29.
In assay [17] the test system is MCF7.
In assay [18] the test system is T47D.
Assay [19] concerns DU-145.
Assay [20] relates to PC-3.

`CCOP1(=O)C=C(C)C(=C(Cl)Cl)C(C)=C1` (centres undefined): the GI50 was 10.2 µM (inactive) in [1]; 1.71 µM (inactive) in assay [2]; 6.24 µM (inactive) in [3]; 5.64 µM (inactive) in assay [4]; 18.1 µM (inactive) in assay [5]; 14.6 µM (inactive) in assay [6]. For the same molecule, the GI50 in assay [7] was 6.46 µM (inactive); in assay [8], 11.7 µM (inactive); in [9] it was 35.1 µM (inactive); in assay [10], 15 µM (inactive); in assay [11], 3.29 µM (inactive); in assay [12], 15.2 µM (inactive). The GI50 in [13] is 8.79 µM; in assay [14], > 10 µM (inactive); in assay [15], 17.1 µM (inactive); in assay [16], 4.72 µM (inactive).

Turning to `N#Cc1nn(-c2ccc(Cl)cc2)c(=N)c2c(N)n3nc(-c4ccccc4)cc3nc12`, the GI50 is 1 µM (active) in assay [1]; < 0.01 µM (active) in assay [2]; 0.681 µM (active) in [3]; 0.294 µM (active) in assay [4]; 0.497 µM (active) in assay [5]; < 0.01 µM (active) in assay [6]. Moreover, the GI50 in [7] was 1 µM (active); in assay [8], 1 µM (active); in [9] it was 0.472 µM (active); in [10], 1 µM (active); in [11] it was 1 µM (active); in assay [12], 0.857 µM (active). In addition, the GI50 is 1 µM in assay [13], 1 µM (active) in assay [14], 1 µM (active) in assay [15] and 1 µM (active) in [16].

For the molecule `CN1CCN(Cc2nc3cccc4c3c([n+]2[O-])-c2ccccc2-4)CC1`, the GI50 in assay [1] was 25.9 µM (inactive); in assay [2], 27.4 µM (inactive); in assay [3], 41 µM (inactive); in assay [4], 12.4 µM (inactive); in [5], 25.4 µM (inactive); in [17] it was 12.8 µM (inactive). The GI50 in assay [6] is 53 µM (inactive); in assay [7], 24.9 µM (inactive); in assay [8], 16.9 µM (inactive); in [18] it was 29.3 µM (inactive); in assay [9], 59.3 µM (inactive); in assay [19], 14.9 µM (inactive). The GI50 in assay [10] was 11.7 µM (inactive); in assay [11] it was 20.7 µM (inactive); in assay [20] it was 11.4 µM (inactive); in assay [12], 25.2 µM (inactive); in assay [13], 29 µM; in [14], 15.1 µM (inactive). The GI50 in assay [15] is 20.1 µM (inactive); in assay [16], 12.4 µM (inactive).

With `CCOC(=O)CCC(NC(=O)c1ccc(/N=C/c2nc3ccccc3nc2-c2ccccc2)cc1)C(=O)OCC` (centres undefined), the GI50 in [1], in assay [2], in [3], in assay [4], in [5] and in assay [6] was > 100 µM (inactive) each time. In addition, the GI50 is > 100 µM (inactive) in assay [7]; > 100 µM (inactive) in assay [8]; > 100 µM (inactive) in [9]; 79.1 µM (inactive) in [10]; > 100 µM (inactive) in assay [11]; > 100 µM (inactive) in [12]. Besides, the concentration for 50% growth inhibition (GI50) in [13] is above 100 µM; in [14], > 100 µM (inactive); in assay [15], > 100 µM (inactive); in assay [16], > 100 µM (inactive).

On to `CC(C)N(C(=O)C12C3C4C5C3C1(C#N)C5C42)C(C)C` (centres undefined), for which the GI50 in assay [1], in [2], in assay [3], in [4], in [5] and in assay [6] was > 100 µM (inactive) throughout. The GI50 in assay [7], in [8], in [9], in assay [10], in assay [11] and in assay [12] was > 100 µM (inactive) throughout. The GI50 was above 100 µM in assay [13], > 100 µM (inactive) in assay [14], > 100 µM (inactive) in assay [15] and > 100 µM (inactive) in assay [16].

Take `O=S1(=O)CCN(c2ccccc2CC(c2c[nH]c3ccccc23)c2c[nH]c3ccccc23)CC1`: the GI50 in assay [1] is 1.99 µM (inactive); in [2], 3.9 µM (inactive); in [3], 8.02 µM (inactive); in [4], 2.33 µM (inactive); in [5], 11.9 µM (inactive); in assay [17] it was 3.66 µM (inactive). Also, the GI50 was 3.64 µM (inactive) in assay [6]; 8.99 µM (inactive) in [7]; 3.03 µM (inactive) in [8]; 6.35 µM (inactive) in assay [18]; 8.67 µM (inactive) in assay [9]; 7.43 µM (inactive) in [19]. The GI50 in assay [10] was 5.02 µM (inactive); in assay [11], 1.75 µM (inactive); in assay [20], 3.64 µM (inactive); in assay [12], 7.91 µM (inactive); in assay [13], 4.94 µM; in assay [14], 30.1 µM (inactive). Further, the GI50 in [15] is 11.5 µM (inactive); in assay [16], 4.59 µM (inactive).

On to `Nc1ccn(C2OC(COC(=O)C34CC5CC(CC(C5)C3)C4)C(O)C2O)c(=O)n1` (centres undefined), for which the GI50 in assay [1] was 0.101 µM (active); in assay [2] it was > 100 µM (inactive); in [3], > 100 µM (inactive); in [4] it was 0.0679 µM (active); in assay [5], > 100 µM (inactive); in assay [17] it was 4.81 µM (inactive). The GI50 is > 69.3 µM (inactive) in assay [6]; > 100 µM (inactive) in [7]; 59 µM (inactive) in assay [8]; > 100 µM (inactive) in assay [18]; > 79.8 µM (inactive) in assay [9]; > 100 µM (inactive) in assay [19]. The GI50 in assay [10] is > 100 µM (inactive); in [11], > 100 µM (inactive); in [20], > 100 µM (inactive); in assay [12], > 100 µM (inactive); in assay [13], above 70.6 µM; in assay [14] it was > 100 µM (inactive). Besides, the values for the GI50 in assay [15] and in [16] were > 100 µM (inactive) and > 57.5 µM (inactive), respectively.

For `c1cc2n(n1)CCN2`, the GI50 is 186 µM (inactive) in assay [1]; 1810 µM (inactive) in assay [2]; 348 µM (inactive) in [3]; 348 µM (inactive) in assay [4]; 646 µM (inactive) in assay [5]; 828 µM (inactive) in assay [17]. Besides, the GI50 in [6] is 1690 µM (inactive); in assay [7], 374 µM (inactive); in [8] it was 3680 µM (inactive); in [18], 347 µM (inactive); in assay [9], 3040 µM (inactive); in assay [19] it was 3320 µM (inactive). Besides, the GI50 in [10] was 1240 µM (inactive); in [11], 1890 µM (inactive); in assay [20], 1160 µM (inactive); in assay [12], 5550 µM (inactive); in assay [13], 2140 µM; in assay [14] it was 4740 µM (inactive). Further, the values for the GI50 in assay [15] and in [16] were 3000 µM (inactive) and 3130 µM (inactive), respectively.
